One assay concerns the target T1, ErbB2 or EGFR.
T1 construct: enzymes purified from a baculovirus expression system; Reagent production was conducted essentially as described in Brignola, P. S., et al, (2002) J. Biol. Chem. 277(2): 1576-1585
Description: ErbB family substrate phosphorylation enzyme assay (HTRF), Method A or Method B. Type of assay: biochemical. The gist of the method: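 Baculovirus-expressed EGFR or ErbB2 (0.8 or 10 nM in enzyme mix) phosphorylates biotinylated Peptide C with 20 µM ATP and 0.8 µM peptide (substrate-mix levels), MnCl2, pH 7.5. Reaction ran 90 min at 20 °C with EDTA stop and HTRF anti-phosphotyrosine read. Method A: enzyme added last; Method B: 1 h enzyme–compound preincubation.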

Assay [1] has as its system BT474 and HN5 tumor cell lines. Description: Methylene blue growth inhibition assay (cellular Method A). To be noted: Homo sapiens, BT-474, 72 h, 3 days, read-out: Activity (Method): growth inhibition IC50 class. In kind it is cell-based, Human. The gist of the method:
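Growth inhibition measured by methylene blue staining of biomass (OD 620) after 3 days' compound exposure at 37° C, final DMSO 0.3%. Cell lines: BT474 (10,000/well), HN5 (3,000/well) and Colo205, all in DMEM with 10% FBS; IC50 fitted by nonlinear regression against vehicle-treated wells.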

[2] abbreviates: Method B: enzyme mix pre-incubated with compound 1 hour at 20° C., started with substrate mix.
The mark [3] stands for this setting: Method A: substrate mix added first, reaction started with enzyme mix.

On to `Cc1cccc(C(=O)Nc2cccc(-c3nn4ccccc4c3-c3ccnc(Nc4cccc(F)c4)n3)c2)c1Cl` [Example 70, 2-Chloro-N-[3-(3-{2-[(3-fluorophenyl)amino]-4-pyrimidinyl}pyrazolo[1,5-a]pyridin-2-yl)phenyl]-3-methylbenzamide], for which the “Activity (Method): pIC50 class against ErbB2 or EGFR” value (“Activity (Method): pIC50 class” for short) on ErbB2 or EGFR (setting [2]) is listed as “++ (B) (at least one pIC50 measurement greater than 6 against either ErbB2 or EGFR but no measurement greater than pIC50 of 7)”. The 50% inhibitory concentration (IC50) in assay [1] lay in the range of 0.1 to 1 µM.
In the case of `O=C(Nc1cccc(-c2nn3ccccc3c2-c2ccnc(Nc3ccccc3)n2)c1)c1ccccn1` [Example 140], the “Activity (Method): pIC50 class” value at ErbB2 or EGFR (setting [3]) is reported as “++ (A) (at least one pIC50 measurement greater than 6 against either ErbB2 or EGFR but no measurement greater than pIC50 of 7)”. For the same molecule, the IC50 in assay [1] was in the range of 0.1 to 1 µM.
In the case of `O=C(Nc1cccc(-c2nn3ccccc3c2-c2ccnc(Nc3cccc(F)c3)n2)c1)c1cnc2ccccc2n1` [Example 24, N-[3-(3-{2-[(3-Fluorophenyl)amino]-4-pyrimidinyl}pyrazolo[1,5-a]pyridin-2-yl)phenyl]-2-quinoxalinecarboxamide], at ErbB2 or EGFR (setting [2]), the “Activity (Method): pIC50 class” value is on record as “+ (B) (no pIC50 measurement greater than 6 against either ErbB2 or EGFR)”. For the same molecule, the IC50 in assay [1] was greater than 1 µM.
The corresponding values for `Cc1noc(C)c1C(=O)Nc1cccc(-c2nn3ccccc3c2-c2ccnc(Nc3cccc(F)c3)n2)c1` [Example 38, N-[3-(3-{2-[(3-fluorophenyl)amino]-4-pyrimidinyl}-pyrazolo[1,5-a]pyridin-2-yl)phenyl]-3,5-dimethyl-4-isoxazolecarboxamide] are “+++ (B) (at least one pIC50 measurement of greater than 7 against either ErbB2 or EGFR)” and 0.1 to 1 µM.
On the same counts, the results for `CN(C)CC(=O)Nc1ccc(Nc2nccc(-c3c(-c4cccc(NC(=O)c5c(F)cccc5F)c4)nn4ccccc34)n2)cc1` [Example 113, N-(3-{3-[2-({4-[(N,N-dimethylglycyl)amino]phenyl}-amino)-4-pyrimidinyl]pyrazolo[1,5-a]pyridin-2-yl}phenyl)-2,6-difluorobenzamide] are “+++ (B) (at least one pIC50 measurement of greater than 7 against either ErbB2 or EGFR)” and less than 0.1 µM.
For the molecule `Cn1cccc1C(=S)Nc1cccc(-c2nn3ccccc3c2-c2ccnc(Nc3ccc4c(c3)OCCO4)n2)c1` [Example 10, 1-Methyl-1H-pyrrole-2-carbothioic acid (3-{3-[2-(2,3-dihydro-benzo[1,4]dioxin-6-ylamino)-pyrimidin-4-yl]pyrazolo[1,5-a]pyridin-2-yl}-phenyl)-amide], the “Activity (Method): pIC50 class” value at ErbB2 or EGFR (setting [3]) is “++ (A) (at least one pIC50 measurement greater than 6 against either ErbB2 or EGFR but no measurement greater than pIC50 of 7)”. Also, in assay [1], the IC50 was in the range of 0.1 to 1 µM.
As for `O=C(Nc1cccc(-c2nn3ccccc3c2-c2ccnc(Nc3cccc(F)c3)n2)c1)c1ccccc1C(F)(F)F` [Example 16, N-(3-{3-[2-(3-Fluoro-phenylamino)-pyrimidin-4-yl]-pyrazolo[1,5-a]pyridin-2-yl}-phenyl)-2-trifluoromethyl-benzamide], the “Activity (Method): pIC50 class” value at ErbB2 or EGFR (setting [2]) was “+++ (B) (at least one pIC50 measurement of greater than 7 against either ErbB2 or EGFR)”. Moreover, the IC50 in assay [1] was less than 0.1 µM.
On the same counts, the results for `O=C(Nc1cccc(-c2nn3ccccc3c2-c2ccnc(Nc3cccc(F)c3)n2)c1)c1ccc(Cl)nc1` [Example 74, 6-Chloro-N-[3-(3-{2-[(3-fluorophenyl)amino]-4-pyrimidinyl}pyrazolo[1,5-a]pyridin-2-yl)phenyl]-3-pyridinecarboxamide] are “++ (B) (at least one pIC50 measurement greater than 6 against either ErbB2 or EGFR but no measurement greater than pIC50 of 7)” and 0.1 to 1 µM.
For the molecule `Nc1ccc(C(=O)Nc2cccc(-c3nn4ccccc4c3-c3ccnc(Nc4ccccc4)n3)c2)cc1` [Example 144, 4-Amino-N-(3-{3-[2-(phenylamino)-4-pyrimidinyl]pyrazolo[1,5-a]pyridin-2-yl}phenyl)benzamide], the “Activity (Method): pIC50 class” value on ErbB2 or EGFR (setting [3]) is “+++ (A) (at least one pIC50 measurement of greater than 7 against either ErbB2 or EGFR)”. Further, the IC50 in assay [1] lay within 0.1 to 1 µM.
As to `Cn1cccc1C(=O)Nc1cccc(-c2nn3ccccc3c2-c2ccnc(Nc3cccc(F)c3)n2)c1` [Example 82, N-[3-(3-{2-[(3-fluorophenyl)amino]-4-pyrimidinyl}-pyrazolo[1,5-a]pyridin-2-yl)phenyl]-1-methyl-1H-pyrrole-2-carboxamide], on ErbB2 or EGFR (setting [2]), the “Activity (Method): pIC50 class” value is “+++ (B) (at least one pIC50 measurement of greater than 7 against either ErbB2 or EGFR)”. In assay [1], the IC50 was 0.1 to 1 µM.
On the same counts, the results for `Cc1c(F)cccc1C(=O)Nc1cccc(-c2nn3ccccc3c2-c2ccnc(Nc3cccc(F)c3)n2)c1` [Example 71, 3-Fluoro-N-[3-(3-{2-[(3-fluorophenyl)amino]-4-pyrimidinyl}pyrazolo[1,5-a]pyridin-2-yl)phenyl]-2-methylbenzamide] are “++ (B) (at least one pIC50 measurement greater than 6 against either ErbB2 or EGFR but no measurement greater than pIC50 of 7)” and 0.1 to 1 µM.
Consider `N#Cc1cc(Nc2nccc(-c3c(-c4cccc(NC(=O)c5c(F)cccc5F)c4)nn4ccccc34)n2)ccc1-n1cccc1` [Example 90], for which the “Activity (Method): pIC50 class” value on ErbB2 or EGFR (setting [3]) is “++ (A) (at least one pIC50 measurement greater than 6 against either ErbB2 or EGFR but no measurement greater than pIC50 of 7)”. The IC50 in assay [1] was 0.1 to 1 µM.
On the same counts, the results for `O=C(Nc1cccc(-c2nn3ccccc3c2-c2ccnc(Nc3ccc(N4CCCC4)c(F)c3)n2)c1)c1c(F)cccc1F` [Example 148, 2,6-Difluoro-N-{3-[3-(2-{[3-fluoro-4-(1-pyrrolidinyl)-phenyl]amino}-4-pyrimidinyl)pyrazolo[1,5-a]pyridin-2-yl]phenyl}benzamide] are “+++ (A) (at least one pIC50 measurement of greater than 7 against either ErbB2 or EGFR)” and less than 0.1 µM.
Turning to `Cc1cccc2c(-c3ccnc(Nc4cccc(C(F)(F)F)c4)n3)c(-c3cccc(NC(=O)c4c(F)cccc4F)c3)nn12` [Example 155, 2,6-Difluoro-N-{3-[7-methyl-3-(2-{[3-(trifluoro-methyl)phenyl]amino}pyrimidin-4-yl)pyrazolo[1,5-a]pyridin-2-yl]phenyl}benzamide], the “Activity (Method): pIC50 class” value at ErbB2 or EGFR (setting [3]) is “++ (A) (at least one pIC50 measurement greater than 6 against either ErbB2 or EGFR but no measurement greater than pIC50 of 7)”. In assay [1], the IC50 was in the range of 0.1 to 1 µM.
On the same counts, the results for `O=C(c1ccccc1)c1ccc(Nc2nccc(-c3c(-c4cccc(NC(=O)c5c(F)cccc5F)c4)nn4ccccc34)n2)cc1` [Example 98, 2,6-Difluoro-N-{3-[3-(2-{[4-(phenylcarbonyl)phenyl]-amino}-4-pyrimidinyl)pyrazolo[1,5-a]pyridin-2-yl]phenyl}benzamide] are “++ (A) (at least one pIC50 measurement greater than 6 against either ErbB2 or EGFR but no measurement greater than pIC50 of 7)” and 0.1 to 1 µM.
On the same counts, the results for `O=C(Nc1cccc(-c2nn3ccccc3c2-c2ccnc(Nc3ccccc3)n2)c1)c1cccnc1` [Example 138, N-{3-[3-(2-Phenylamino-pyrimidin-4-yl)-pyrazolo[1,5-a]pyridin-2-yl]-phenyl}-nicotinamide] are “+++ (A) (at least one pIC50 measurement of greater than 7 against either ErbB2 or EGFR)” and 0.1 to 1 µM.

For the origin of these results see US7812022B2 (GlaxoSmithKline LLC, priority 2004, dated 2010).
